Experiments:
MCT4 = MCT4 (Homo sapiens (Human), UniProt O15427); assay: Assay 3: MCT4-mediated lactate transport in MDA-MB-231 breast cancer cells; format: cell-based; conditions: MDA-MB-231 cells; lactate transport
Procedure: (§1) 10 μL of a 30 mM DMSO stock of BCECF-AM ester (Life Technologies) is added and the cells are incubated at 37° C. for 5 min. The cells are pelleted (300 g, 5 min), washed once with 1 mL Tyrode's Solution, pH 7.4, re-pelleted (300 g, 5 min), and resuspended in 1 mL Tyrode's Solution, pH 7.4.
MCT4 activity may be assessed by monitoring the intracellular pH change that accompanies lactate/proton symport, using the pH-sensitive fluorescent dye 2′,7′-bis-(carboxyethyl)-5(6)-carboxyfluorescein (BCECF), in a manner similar to that previously reported for MCT1 and MCT4. The following is an exemplary procedure for assaying MCT4 activity of the compounds of Formula (I).

MCT1 = MCT1 (Homo sapiens (Human), UniProt P53985); assay: Assay 4: MCT1-mediated lactate transport in BT20 breast cancer cells; format: cell-based; conditions: Table 27
Procedure: as §1
Assay 4: MCT1-Mediated Lactate Transport in BT20 Breast Cancer Cells.
Preparation of BCECF loaded cells are as described for Assay 1. Lactate transport assay is as described for Assay 1, except 10 mM L-lactate (rather than 50 mM) is added.

Sequence of MCT4 (O15427 whole entry, looked up): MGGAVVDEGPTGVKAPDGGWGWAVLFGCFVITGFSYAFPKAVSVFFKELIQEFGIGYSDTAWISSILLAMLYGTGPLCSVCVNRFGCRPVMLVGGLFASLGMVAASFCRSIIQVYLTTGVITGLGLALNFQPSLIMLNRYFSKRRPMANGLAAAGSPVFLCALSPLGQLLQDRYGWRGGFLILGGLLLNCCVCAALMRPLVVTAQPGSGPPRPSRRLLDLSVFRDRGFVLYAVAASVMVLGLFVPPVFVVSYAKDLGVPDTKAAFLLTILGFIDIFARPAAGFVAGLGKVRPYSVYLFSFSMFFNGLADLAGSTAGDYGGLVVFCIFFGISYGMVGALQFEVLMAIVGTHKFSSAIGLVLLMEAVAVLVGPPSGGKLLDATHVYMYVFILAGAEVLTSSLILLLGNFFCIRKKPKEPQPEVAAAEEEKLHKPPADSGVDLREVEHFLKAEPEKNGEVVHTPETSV
Sequence of MCT4 (P35613 whole entry partner, looked up): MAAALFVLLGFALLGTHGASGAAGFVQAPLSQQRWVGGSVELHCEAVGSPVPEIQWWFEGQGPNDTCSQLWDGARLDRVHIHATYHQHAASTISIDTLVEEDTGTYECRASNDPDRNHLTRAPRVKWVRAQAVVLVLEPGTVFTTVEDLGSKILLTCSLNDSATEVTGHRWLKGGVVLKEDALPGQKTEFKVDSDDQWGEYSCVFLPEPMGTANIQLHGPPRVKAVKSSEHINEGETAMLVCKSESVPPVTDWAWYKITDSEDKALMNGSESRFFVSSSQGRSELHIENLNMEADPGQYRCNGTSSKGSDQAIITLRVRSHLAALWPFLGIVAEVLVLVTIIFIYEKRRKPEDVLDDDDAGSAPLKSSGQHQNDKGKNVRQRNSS
Sequence of MCT1 (P53985 whole entry): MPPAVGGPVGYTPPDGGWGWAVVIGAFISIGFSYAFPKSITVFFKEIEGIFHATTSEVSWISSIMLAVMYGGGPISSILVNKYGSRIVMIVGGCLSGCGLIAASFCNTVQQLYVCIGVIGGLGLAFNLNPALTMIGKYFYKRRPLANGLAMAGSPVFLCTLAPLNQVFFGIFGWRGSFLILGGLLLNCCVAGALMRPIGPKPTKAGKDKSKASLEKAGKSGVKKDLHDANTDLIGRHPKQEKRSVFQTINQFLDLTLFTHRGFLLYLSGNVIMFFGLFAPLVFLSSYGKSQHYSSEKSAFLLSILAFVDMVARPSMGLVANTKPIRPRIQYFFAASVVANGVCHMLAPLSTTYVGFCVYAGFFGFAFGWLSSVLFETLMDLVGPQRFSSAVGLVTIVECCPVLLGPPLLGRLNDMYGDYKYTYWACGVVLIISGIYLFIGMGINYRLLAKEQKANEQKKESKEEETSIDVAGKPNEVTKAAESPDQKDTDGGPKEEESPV
Sequence of MCT1 (P35613 140-385 partner): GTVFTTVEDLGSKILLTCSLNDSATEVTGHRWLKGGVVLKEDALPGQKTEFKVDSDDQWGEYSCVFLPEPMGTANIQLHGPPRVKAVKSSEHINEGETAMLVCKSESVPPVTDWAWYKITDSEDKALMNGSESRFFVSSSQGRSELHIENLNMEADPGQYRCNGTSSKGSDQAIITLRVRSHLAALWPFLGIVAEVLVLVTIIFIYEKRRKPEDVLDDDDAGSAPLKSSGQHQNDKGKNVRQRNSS

IC50 (MCT4) [nM]	IC50 (MCT1) [nM]	SMILES
1400	> 100000	COc1cccc(-c2cc(COC(C)(C)C(=O)O)nn2CC(C)C)c1 [Example 137, 2-([5-(3-Methoxyphenyl)-1-(2-methylpropyl)-1H-pyrazol-3-yl]methoxy)-2-methylpropanoic acid]
535	> 100000	COc1cccc(-c2cc(COC(C)(C)C(=O)O)nn2CC2CCOCC2)c1 [Example 138, 2-([5-(3-Methoxyphenyl)-1-([oxan-4-yl]-methyl)-1H-pyrazol-3-yl]methoxy)-2-methylpropanoic acid]
9700	> 100000	COc1cccc(-c2cc(COC(C)(C)C(=O)O)nn2Cc2ncccc2Cl)c1 [Example 139, 2-([1-[(3-Chloropyridin-2-yl)methyl]-5-(3-methoxyphenyl)-1H-pyrazol-3-yl)methoxy)-2-methylpropanoic acid]
6.7	33000	CCOc1ccccc1Cn1nc(COC(C)(C)C(=O)O)cc1-c1cccc(OC)c1 [Example 141, 2-([1-[(2-Ethoxyphenyl)methyl]-5-(3-methoxyphenyl)-1H-pyrazol-3-yl]methoxy)-2-methylpropanoic acid]
6.3	26000	COc1cccc(-c2cc(COC(C)(C)C(=O)O)nn2Cc2ccccc2OC2CC2)c1 [Example 142, 2-([1-[(2-Cyclopropoxyphenyl)methyl]-5-(3-methoxyphenyl)-1H-pyrazol-3-yl]methoxy)-2-methylpropanoic acid]
195	3300	COc1cccc(-c2cc(/C=C/C(C)(C)C(=O)O)nn2Cc2ccccc2Cl)c1 [Example 143, (3E)-4-[1-[(2-Chlorophenyl)methyl]-5-(3-methoxyphenyl)-1H-pyrazol-3-yl]-2,2-dimethylbut-3-enoic Acid]
127	2400	COc1cccc(-c2cc(CCC(C)(C)C(=O)O)nn2Cc2ccccc2Cl)c1 [Example 144, 4-[1-[(2-chlorophenyl)methyl]-5-(3-methoxyphenyl)-1H-pyrazol-3-yl]-2,2-dimethylbutanoic Acid]
3.6	70000	CCn1ncc2ccc(-c3cc(COC(C)(C)C(=O)O)nn3Cc3ccccc3Cl)cc21 [Example 151, Sodium 2-([1-[(2-chlorophenyl)methyl]-5-(1-ethyl-1H-indazol-6-yl)-1H-pyrazol-3-yl]methoxy)-2-methylpropanoate]
80	> 100000	CC(C)(OCc1cc(-c2cccc(OC3CC3)c2)n(-c2cccc3cn[nH]c23)n1)C(=O)O [Example 152, 2-([5-(3-Cyclopropoxyphenyl)-1-(1H-indazol-7-yl)-1H-pyrazol-3-yl]methoxy)-2-methylpropanoic Acid]
830	44000	CC(C)(OCc1cc(-c2cccc(OC3CC3)c2)n(-c2cccc3[nH]ncc23)n1)C(=O)O [Example 153, 2-([5-(3-Cyclopropoxyphenyl)-1-(1H-indazol-4-yl)-1H-pyrazol-3-yl]methoxy)-2-methylpropanoic Acid]
240	> 100000	Cc1n[nH]c2cccc(-n3nc(COC(C)(C)C(=O)O)cc3-c3cccc(OC4CC4)c3)c12 [Example 154, 2-([5-(3-cyclopropoxyphenyl)-1-(3-methyl-1H-indazol-4-yl)-1H-pyrazol-3-yl]methoxy)-2-methylpropanoic Acid]
1400	> 100000	CC(C)(OCc1cc(-c2ccccn2)n(-c2ccccc2Cl)n1)C(=O)O [Example 156, 2-([1-(2-Chlorophenyl)-5-(pyridin-2-yl)-1H-pyrazol-3-yl]methoxy)-2-methylpropanoic acid]
580	> 100000	CC(C)(OCc1cc(-c2cccc(OCC3COC3)c2)n(-c2ccccc2F)n1)C(=O)O [Example 158, 2-([1-(2-Fluorophenyl)-5-[3-(oxetan-3-yl-methoxy)phenyl]-1H-pyrazol-3-yl]-methoxy)-2-methylpropanoic acid]
270	> 100000	CC(C)(OCc1cc(-c2cccc(OC3COC3)c2)n(-c2ccccc2F)n1)C(=O)O [Example 160, 2-([1-(2-Fluorophenyl)-5-[3-(oxetan-3-yl-oxy)phenyl]-1H-pyrazol-3-yl]methoxy)-2-methylpropanoic acid]
6.4	34000	CCOc1cc(OCC)cc(-c2cc(COC(C)(C)C(=O)O)nn2-c2ccccc2C)c1 [Example 162, 2-([5-(3,5-Diethoxyphenyl)-1-(2-methyl-phenyl)-1H-pyrazol-3-yl]methoxy)-2-methylpropanoic acid]
4.4	73000	CCn1ncc2ccc(-c3cc(COC(C)(C)C(=O)O)nn3-c3ccccc3N(C)C)cc21 [Example 163, 2-([1-[2-(dimethylamino)phenyl]-5-(1-ethyl-1H-indazol-6-yl)-1Hpyrazol-3-yl]-methoxy)-2-methylpropanoic acid]
43	> 100000	CCOc1ccccc1-n1nc(COC(C)(C)C(=O)O)cc1-c1cc(OC)cc(OC)c1 [Example 164, 2-([5-(3,5-Dimethoxyphenyl)-1-(2-ethoxy-phenyl)-1H-pyrazol-3-yl]methoxy)-2-methylpropanoic acid]
85	99000	CCn1ncc2ccc(-c3cc(COC(C)(C)C(=O)O)nn3-c3cccc4cnn(C)c34)cc21 [Example 165, 2-([5-(1-Ethyl-1H-indazol-6-yl)-1-(1-methyl-1H-indazol-7-yl)-1H-pyrazol-3-yl]-methoxy)-2-methylpropanoic acid]
12.2	68000	Cn1ncc2cccc(-n3nc(COC(C)(C)C(=O)O)cc3-c3cccc(OCC4CC4)c3)c21 [Example 169, 2-([5-[3-(Cyclopropylmethoxy)phenyl]-1-(1-methyl-1H-indazol-7-yl)-1H-pyrazol-3-yl]-methoxy)-2-methylpropanoic acid]
12	32000	CCOc1cc(OCC)cc(-c2cc(COC(C)(C)C(=O)O)nn2-c2cccc3cnn(C)c23)c1 [Example 171, 2-([5-(3,5-Diethoxyphenyl)-1-(1-methyl-1H-indazol-7-yl)-1H-pyiazol-3-yl]methoxy)-2-methylpropanoic acid]
0.59	33000	CCn1ncc2cccc(-n3nc(COC(C)(C)C(=O)O)cc3-c3cccc(OCC(C)(C)C)c3)c21 [Example 172, 2-([5-(3-(2,2-Dimethylpropoxy)phenyl]-1-(1-ethyl-1H-indazol-7-yl)-1H-pyrazol-3-yl]-methoxy)-2-methylpropanoic acid]
230	66000	CC(C)(OCc1cc(-c2cccc(OCC3COC3)c2)n(-c2ccccc2Cl)n1)C(=O)O [Example 173, 2-([1-(2-Chlorophenyl)-5-[3-(oxetan-3-yl-methoxy)phenyl)-1H-pyraz.ol-3-yl]-methoxy)-2-methylpropanoic acid]
101	> 100000	Cn1ncc2ccc(-c3cc(COC(C)(C)C(=O)O)nn3-c3ccccc3Cl)cc21 [Example 174, 2-([1-(2-Chlorophenyl)-5-(1-methyl-1H-indazol-6-yl)-1H-pyrazol-3-yl]methoxy)-2-methylpropanoic acid]
180	> 100000	CC(C)(OCc1cc(-c2cccc(OC3COC3)c2)n(-c2ccccc2Cl)n1)C(=O)O [Example 176, 2-([1-(2-Chlorophenyl)-5-[3-(oxetan-3-yl-oxy)phenyl]-1Hpyrazol-3-yl]methoxy)-2-methylpropanoic acid]
20	25000	CC(C)(OCc1cc(-c2cccc(OC3CC3)c2)n(-c2ccccc2F)n1)C(=O)O [Example 181, 2-([5-(3-cyclopropoxyphenyl)-1-(2-fluorophenyl)-1H-pyrazol-3-yl]methoxy)-2-methylpropanoate]
5.9	12000	CC(C)(OCc1cc(-c2cccc(OC3CC3)c2)n(-c2ccccc2Br)n1)C(=O)O [Example 182, 2-([1-(2-Bromophenyl)-5-(3-cyclopropoxy-phenyl)-1H-pyrazol-3-yl]methoxy)-2-methylpropanoic acid]
22	> 33000	CC(C)(OCc1cc(-c2cccc(OC3CC3)c2)n(-c2ccc(Cl)cc2Cl)n1)C(=O)O [Example 184, 2-([5-(3-Cyclopropoxyphenyl)-1-(2,4-dichlorophenyl)-1H-pyrazol-3-yl]methoxy)-2-methylpropanoic acid]
9.3	17000	CC(C)(OCc1cc(-c2cccc(OC3CC3)c2)n(-c2cc(Cl)ccc2Cl)n1)C(=O)O [Example 185, 2-([5-(3-Cyclopropoxyphenyl)-1-(2,5-dichlorophenyl)-1H-pyrazol-3-yl]methoxy)-2-methylpropanoic acid]
21.5	90000	CC(C)(OCc1cc(-c2cccc(OC3CC3)c2)n(-c2ccccc2OC(F)F)n1)C(=O)O [Example 186, 2-([5-(3-Cyclopropoxyphenyl)-1-[2-(difluoromethoxy)phenyl]-1H-pyrazol-3-yl]-methoxy)-2-methylpropanoic acid]
43	63000	CCOc1ccccc1-n1nc(COC(C)(C)C(=O)O)cc1-c1cccc(OC2CC2)c1 [Example 187, 2-([5-(3-cyclopropoxyphenyl)-1-(2-ethoxy-phenyl)-1H-pyrazol-3-yl]methoxy)-2-methylpropanoic acid]

SMILES	IC50 (MCT4) [nM]	IC50 (MCT1) [nM]
CC(C)(OCc1cc(-c2cccc(OC3CCC3)c2)n(-c2ccccc2F)n1)C(=O)O [Example 159, 2-([5-(3-Cyclobutoxyphenyl)-1-(2-fluoro-phenyl)-1H-pyrazol-3-yl]methoxy)-2-methylpropanoic acid]	11	> 100000

From patent US10214492B2, “Heterocyclic inhibitors of MCT4” (Vettore, LLC, priority 2016, dated 2019)
